According to patent US4012395A, “Process for preparing thiazolidinone acetic acid derivatives” (Warner-Lambert Company, priority 1974, dated 1977):

Legend:
[1] = system: urine excreted by each kidney, mongrel dogs; experiment: Diuresis in anesthetized dogs, intravenous administration; assay type: in vivo, dog (male and female mongrel); conditions: i.v.; for urinary excretion / urinary flow increased to: 32.0 mg/kg; for dose dependency of diuretic effect, r: 2.0 up to 64.0 mg/kg
Protocol: Experiments were performed in male and female mongrel dogs, anesthetized with pentobarbital. The body weight was between 9 and 11 kg. After laparotomy the proximal part of the ureters was canulated and the urine excreted by each kidney collected in periods of 10 minutes. Arterial and venous pressure were recorded throughout the experiment. At the beginning 1.5 ml/kg of a tempered saline solution were infused for one and a half hour. After constant urine-flow was reached, the diuretics were injected into the femoral vein. The initial dose was 2.0 mg/kg which was increased with the factor 2 up to 64.0 mg/kg. Two animals were used for each dose level.

[2] = system: diuresis of conscious dogs; experiment: Diuresis in conscious dogs, intragastric administration; assay type: in vivo, dog (unanesthetized adult female Beagle); conditions: for maximal achievable effect on the diuresis (urine excretion): 25.0 mg/kg
Protocol: Experiments were carried out in 5 unanesthetized adult female Beagle dogs, weighing 15 to 22 kg, which were trained to lie on a table without fixation. The animals were not episiotomized. A rubber catheter was introduced into the bladder and excreted urine was collected separately for each animal and the volume measured in 30 minute intervals. After a constant urine flow was achieved, test substances were administered by stomach tube. The diuretics were diluted with saline solution so that a constant volume of 25 ml/kg was reached. Three animals received the test substances and two served as controls. The lowest dose of the diuretics administered was 1.56 mg/kg. Dosages were increased by a factor of 2 up to 50 mg/kg.

[3] = in vivo; conditions: rat, iv
[4] = system: mice; experiment: Acute toxicity in mice, intragastric; assay type: in vivo, mouse; conditions: aqueous solution, within 48 hours
[5] = system: potassium excretion in dogs; experiment: Influence on potassium excretion (clearance experiments); assay type: in vivo, dog; conditions: anesthetized dogs, with higher amounts of sodium excreted
Protocol: Animals were anesthetized by 30.0 mg/kg pentobarbital intravenously. At the beginning of the experiment one saline solution was infused within 1 hour. In the urine which was collected by using a bladder catheter besides other parameters potassium and sodium concentrations were determined by flame photometry.

[6] = system: rats; conditions: rat, in vivo
[7] = Toxicity (general statement); conditions: in vivo

Compound | diuretic activity compared with 3282 [1] | urinary excretion / urinary flow increased to [1] | dose dependency of diuretic effect, r [1] | maximal achievable effect on the diuresis (urine excretion) [2] | effect of dose increase on urine excretion ([2]; above 25.0 mg/kg) | LD50 [3] | dosage up to which none of the animals died [4] | increase of potassium excretion, Furosemide versus […] [5] | dosage up to which no deaths were seen [6] | acute toxicity (in words) [7]
CCOC(=O)/C=C1\SC(N2CCCCC2)C(=O)N1C (stereo not drawn) [Etozolin, ethyl-3-methyl-4-oxo-5-piperidino-Δ^2,α -thiazolidineacetate] | far less active | 2.25 ml/minute per animal | 0.5583 | 7.8 ml/animal/min | does not result in a further increase of urine excretion | 56.6 mg/kg | – | – | – | –
CN1C(=O)C(N2CCCCC2)SC1=CC(=O)O (stereo not shown) [Example 3282, (Z)-3-Methyl-4-oxo-5N-piperidino-thiazolidin-2-ylidene-acetic acid] | – | 16 ml/minute per animal | 0.8799 | 10.9 ml/animal/min | – | – | ≥ 2,250 mg/kg | by far more increased with Furosemide than with 3282 | ≥ 1,000 mg/kg | very favorable
